Experimental data reported in PMC11314366, “Unveiling the Catalytic Roles of DsBBS1 and DsBBS2 in the Bibenzyl Biosynthesis of Dendrobium sinense” (Molecules, 2024).

Tested on: DsBBS2
Test: HPLC of resveratrol formed, nonlinear curve fitting
Type: biochemical, Dendrobium sinense
Details: 0.5 mM malonyl-CoA, 50 mM Hepes, 37 °C, 30 min; p-coumaroyl-CoA 0.5-5.0 mM

Km: 2050 ± 310 µM
SMILES: CC(C)(COP(=O)(O)OP(=O)(O)OC[C@H]1O[C@@H](n2cnc3c(N)ncnc32)[C@H](O)[C@@H]1OP(=O)(O)O)[C@@H](O)C(=O)NCCC(=O)NCCSC(=O)/C=C/c1ccc(O)cc1 [p-coumaroyl-CoA]
